Measured values published in patent publication US11926580B2, “Hydropersulfide precursors” (THE JOHNS HOPKINS UNIVERSITY, priority 2018, dated 2024).
Where “and” joins values, the source holds several entries; their conditions need not be identical. Identical values can stand only once.

Test: Kinetics of RSSH generation by 1H NMR with NEM trapping
Type: physicochemical
Details: 10% D2O
Description: FIGS. 3a and 3b provide graphs of (a) Stacked ^1H NMR spectra showing the decomposition of precursor 4d (1 mM) with NEM (20 mM) in 10% D2O, phosphate buffer (PB), pH 7.4 at 37° C. to produce RSS-NEM adduct 5a; Precursor 4d was introduced to a solution of NEM in PB at t=0 min and following equilibration and shimming, the first 1H NMR spectrum was obtained after 6 min.; and (b) The kinetics of decomposition of 4d (circles represent the —CH3 protons (Ha) of the precursor) and formation of 5a (squares represent the diasterotopic protons (Hb) of the succinimide ring of the two product diastereomers).
Next, ^1H NMR spectroscopy was used to monitor the kinetics of RSSH generation from 4d by trapping with NEM in 10% D2O, pH 7.4 buffer containing DMSO as an internal standard at 37° C. An increase in the peak intensity attributed to one of the diasterotopic protons of the succinimide ring of the two product diastereomers (Hb, δ2.99-2.91 ppm) was observed (FIG. 3a). The other diasterotopic proton (Hc, δ3.30-3.21 ppm) overlaps with N-ethylmaleamic acid (NEMA), a product derived from NEM hydrolysis. Similarly, the intensity of two methyl group protons of precursor 4d (δ1.44 and 1.41 ppm) decreased as four methyl group protons of the two diastereomers of 5a (Ha, δ1.40, 1.37 ppm and 1.40, 1.34 ppm) increased, supporting the clean conversion of 4d to 5a. The ^1H NMR peak assignments for 5a are consistent with the RSS-NEM adduct formed during S-methoxycarbonyl penicillamine disulfide (MCPD) decomposition (Scheme 1, eq. 3) in the presence of NEM.
All starting materials were of reagent grade and used without further purification. N-acetyl-D-penicillamine, N-ethylmaleimide, N-ethylmaleamic acid, and phenylcyanamide were purchased from Sigma-Aldrich and used without further purification. Thiourea and N-substituted thioureas were purchased from Alfa Aesar and Oakwood Chemicals. Deuterated solvents (Cambridge Isotope Laboratories) were used for NMR spectroscopic analyses. NMR spectra were obtained on a 400 MHz FT-NMR spectrometer. All chemical shifts are reported in parts per million (ppm) relative to residual CHCl3 (7.26 ppm for ^1H, 77.2 ppm for ^13C), residual H2O (4.79 ppm for ^1H), residual DMSO (2.50 ppm for ^1H, 39.5 for ^13C), or residual MeOH (3.31 ppm for ^1H, 49.2 ppm for ^13C). The kinetics of RSSH generation were measured using a Varian Inova 800 MHz spectrometer. UPLC-MS analysis was carried out with a Waters Acquity/Xevo-G2 UPLC-MS system equipped with an ACQUITY UPLC BEH C18 column (2.1 mm×50 mm, 1.7 μm). The mass signals for products of hydropersulfide trapping with NEM were obtained via deconvolution using MassLynx 4.1 software. The pH measurements were performed using a Fisher Scientific Accumet AB15 pH-meter. Analytical thin layer chromatography (TLC) was performed on Sigma-Aldrich silica gel on TLC A1 foils with fluorescent indicator F254 plates. Visualization was accomplished with UV light (254 nm) or staining with KMnO4. Flash column chromatography was performed using SiliaFlash P60 (230-400 mesh) silica gel. Melting points were recorded using MEL-TEMP® capillary melting point apparatus and are uncorrected.

CC(=O)NC(C(=O)O)C(C)(C)SSC(=N)Nc1ccccc1.Cl (stereo not shown) [Precursor 4d, ((1-acetamido-1-carboxy-2-methylpropan-2-yl)disulfaneyl)(phenylamino)methaniminium chloride]
k, single-exponential fit of precursor decomposition and 5a formation (4d 1 mM, NEM 20 mM, phosphate buffer pH 7.4, 37° C.): 0.12 min⁻¹
half-life at 1 mM (NEM, pH 7.4 buffer, 37° C., read-out: half-life of precursor): 5.6 min
t1//2 (mm) (precursor 1 mM, NEM 20 mM, pH 7.4 phosphate buffer, 37° C.): 5.6 ± 0.3 min
Hydropersulfide Yield (%) (RSS-NEM adduct) (precursor 1 mM, NEM 20 mM, pH 7.4 phosphate buffer, 37° C., based upon % precursor consumed): 96% and 96 ± 1%
